For one compound, Fatality, IC50 and inhibition rate results are on record in EP4717275A1, “ANTI-LUNG CANCER COMBINED DRUG AND USE THEREOF” (Gunagdong Yinzhu Pharmaceutical Technology Co., Ltd, priority 2023, dated 2024).

The format of series [1] is in vivo. The settings on record: dead/total animals at Day 21; NCI-H1975 study; PO, QD×21. The procedure:
BALB/c Nude mice, female, 8-10 weeks old, 18-20g. The variation of the body weight is ±20% around average body weight. 80 mice were inoculated and 60 mice were grouped.
The grouping day was designated as Day 0, and administration commenced according to animal body weight.
Animal body weight and tumor volume were measured twice weekly throughout the experiment. Tumor length and width were measured using a digital caliper, with tumor volume estimated from these measurements.
Clinical observations were recorded daily to assess overall health status, weight abnormalities, behavioral changes, and other treatment-related adverse reactions.
In accordance with animal welfare regulations, animals meeting any of the following criteria during the study were removed from the experimental group and euthanized: 1. Body weight loss exceeding 20% compared to Day 0 (BWL ≥ 20%); 2. Severe adverse reactions such as blindness or paralysis; 3. Tumor volume exceeding 2000 mm^3; 4.
The animal body weight change rate (%BWC) is calculated as: (BWt - BW0) / BW0 × 100%, where BWt is the animal body weight at each measurement and BW0 is the animal body weight at grouping.
According to China's NMPA Technical Guidance Principles for Non-clinical Studies of Cytotoxic Antineoplastic Drugs (November 2006), %T/CRTV ≤ 40% and statistically significant P < 0.05 indicate efficacy. Drug-related animal mortality exceeding 20% indicates severe toxicity at that dose.
All experimental data in this study are expressed as Mean ± SEM.

Another series relates to NCI-H2228 cell. The experiment in a line: CCK8 proliferation assay with combination index analysis. The settings on record: CAI alone. In kind it is cell-based, human. As for the experimental part: CCK8 method was used to evaluate the effect of the drugs towards proliferation of lung cancer cell line (NCI-H2228 cell). The cellular viability with different concentration of drug was assayed and the 50% inhibitory concentration was calculated.
Emerge NCI-H2228 cells (purchased from American Type Culture Collection (ATCC, Manassas, VA, USA)) from liquid nitrogen and thaw in a 37°C water bath. After thawing, culture cells in 1640 medium.
When cell density reached 90% confluence in culture medium, cells were digested with 0.25% trypsin and resuspended. After cell growth stabilized, cells in the logarithmic growth phase were harvested and counted using a cell counter and it was ensured that viability exceeded 85% for all cell lines.
Adjust cell concentration by diluting with culture medium. Add 100 µL of cell suspension to a 96-well plate to achieve a density of 3000 cells/well. Add 100 µL of PBS buffer to the wells around the cell-seeded wells.
Incubate the 96-well plate at 37°C, 5% CO2, and 95% humidity overnight.
Remove the cell culture plate from the incubator, aspirate the culture medium, and add the prepared drug-containing medium. Incubate at 37°C, 5% CO2, and 95% humidity for 72 hours.
Add 10 µL of CCK-8 solution to each well of the 96-well plate. Incubate the plate in the cell culture incubator for 1.5 hours. Measure the absorbance at 450 nm using a microplate reader.
Analyze data using GraphPad Prism 5.0 software. Fit the data using nonlinear S-curve regression to generate a dose-response curve and calculate the IC50 value. [formula]
The analysis of the combination index of the compound was performed using the median effect principle. The formula for the combination index of two compounds is: CI = (D)1/(Dx)1 + (D)2/(Dx)2 [formula]
Where: • (D)1---- The concentration of Compound 1 when compound 1 was used with another compound and the effect X was generated; • (D)2---- The concentration of Compound 2 when compound 2 was used with another compound and the effect X was generated; • (Dx)1---- The concentration of Compound 1 when compound 1 was used alone and the effect X was generated; • (Dx)2---- The concentration of Compound 2 when compound 2 was used alone and the effect X was generated.
The CI value enables quantitative assessment of the nature and strength of interactions between different compounds (Table 2). Interaction strength is measured using the weighted average CI (CIwt), calculated by the formula: CIwt = (CI50+2CI75+3CI90+4CI95)/10 [formula]
Where: • CI50 ---- CI value at EC50 (concentration achieving 50% effect) • CI75, CI90, and CI95 follow the same principle, representing the CI values at EC75, EC90, and EC95, respectively.
Evaluation of the combination effect: CI value is used to evaluate the combination effect, and the judgment method is shown in Table 7. Table 7 Judgment criteria of the results

Another series has as its system mouse melanoma. The settings on record: transplanted tumors, dexamethasone by intraperitoneal injection; cited from earlier work.

Values joined by “and” are separate entries in the source; they are usually repeats but may differ in a detail not shown here. Equal values may be shown once. Read-outs that look alike come from different tables or passages of the source.

The term IC50 denotes the concentration needed to halve the response being measured. With `NC(=O)c1nnn(Cc2cc(Cl)c(C(=O)c3ccc(Cl)cc3)c(Cl)c2)c1N` [CAI, 5-Amino-1-[3,5-dichloro-4-(4-chlorobenzoyl chloride)benzyl]-1H-1,2,3-triazole-4-benzamide], in series [1], the Fatality is on record as 0/10 (Day 21). Besides, the IC50 with NCI-H2228 cell (single plates 1-3, 72 hours, read-out: IC50 (CAI)) was 22.9 µM and 23 µM; in the series on NCI-H2228 cell (Homo sapiens, NCI-H2228, 72 h, average of 3 plates, read-out: IC50 (CAI)), 22.8 µM; in the series with NCI-H2228 cell (Homo sapiens, NCI-H2228, 72 h, single plates 1-3, read-out: IC50 (CAI)), 22.4 µM. The inhibition rate in the series with mouse melanoma is reported as 39.8%.
